Results: patent US12528815B2, “5-amino-8-(4-pyridyl)-[1,2,4]triazolo[4,3-c]pyrimidin-3-one compounds for use against cancer” (Nxera Pharma UK Limited, priority 2020, dated 2026)

Columns and labels:
[1] = target: T1, human adenosine A2A receptor (Homo sapiens, UniProt P29274); test: Inhibition binding assay, human adenosine A2A receptor membranes, [3H]ZM241385; conditions: 1 nM [3H]ZM241385, HEK293-hA2A membranes, 25° C., 1 h; IC50 converted to Ki with Cheng-Prusoff; read-out: A2A pKi (converted)
T1 construct: expressed in transfected cells; host or cells: HEK293 cells infected with BacMam
T1 sequence (P29274 whole entry): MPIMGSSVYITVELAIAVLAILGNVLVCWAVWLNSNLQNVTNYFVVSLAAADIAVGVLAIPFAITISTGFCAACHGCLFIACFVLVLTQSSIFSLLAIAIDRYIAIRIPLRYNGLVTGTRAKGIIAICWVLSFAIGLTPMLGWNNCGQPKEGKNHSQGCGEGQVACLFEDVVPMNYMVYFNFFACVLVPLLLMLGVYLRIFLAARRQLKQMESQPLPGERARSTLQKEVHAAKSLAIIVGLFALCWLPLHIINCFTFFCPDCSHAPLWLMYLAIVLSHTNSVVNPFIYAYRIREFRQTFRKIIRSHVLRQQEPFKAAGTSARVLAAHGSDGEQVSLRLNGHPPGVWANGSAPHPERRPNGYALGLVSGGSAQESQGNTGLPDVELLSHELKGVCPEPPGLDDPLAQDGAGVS
Summary of the method: (§1)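 Membranes from BacMam-infected HEK293 cells (0.2 μg A2A, 1.4 μg A1) incubated 1 h at 25° C with test compound and 1 nM [3H]ZM241385 (A2A; 50 mM Tris-HCl pH 7.4) or [3H]DPCPX (A1; plus 100 mM NaCl, 10 mM MgCl2). Nonspecific: 1 μM CGS15943 or DPCPX. Filtration, scintillation; IC50 converted to Ki via Cheng-Prusoff.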

[2] = target: T2, human adenosine A1 receptor (Homo sapiens, UniProt P30542); test: Inhibition binding assay, human adenosine A1 receptor membranes, [3H]DPCPX; conditions: 1 nM [3H]DPCPX, 25° C., 1 h; IC50 converted to Ki with Cheng-Prusoff; read-out: A1 pKi (converted)
T2 construct: expressed in transfected cells; host or cells: HEK293 cells infected with BacMam (the same paragraph also labels the preparation CHO-hA1)
T2 sequence (P30542 1-326): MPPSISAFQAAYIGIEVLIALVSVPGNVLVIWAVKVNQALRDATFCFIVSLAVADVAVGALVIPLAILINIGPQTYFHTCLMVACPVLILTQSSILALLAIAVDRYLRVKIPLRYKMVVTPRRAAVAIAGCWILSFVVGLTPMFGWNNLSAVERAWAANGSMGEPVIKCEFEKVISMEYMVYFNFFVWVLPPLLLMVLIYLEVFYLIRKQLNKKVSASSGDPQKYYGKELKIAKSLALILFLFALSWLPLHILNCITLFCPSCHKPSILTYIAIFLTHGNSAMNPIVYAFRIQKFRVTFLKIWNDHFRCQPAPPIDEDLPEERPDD
Summary of the method: as §1

Structure (SMILES) | Ki [1] | Ki [2]
Cc1cc(-c2c(-c3ccc(F)cc3)nc(N)n3c(=O)n(C)nc23)cc(Cl)n1 [Example 2-49, 5-amino-8-(2-chloro-6-methyl-4-pyridyl)-7-(4-fluorophenyl)-2-methyl-[1,2,4]triazolo[4,3-c]pyrimidin-3-one] | 0.0398 µM | 0.501 µM
Nc1nc(-c2ccccc2)c(-c2cc(Cl)nc(C(F)(F)F)c2)c2nn(Cc3ccc(F)cn3)c(=O)n12 [Example 1-79, 5-amino-8-[2-chloro-6-(trifluoromethyl)-4-pyridyl]-2-[(5-fluoro-2-pyridyl)methyl]-7-phenyl-[1,2,4]triazolo[4,3-c]pyrimidin-3-one] | 0.00251 µM | 0.251 µM
CC#Cc1nc(N)n2c(=O)n(CCC(F)(F)F)nc2c1-c1cc(C)nc(C)c1 [Example 3-7, 5-amino-8-(2,6-dimethyl-4-pyridyl)-7-prop-1-ynyl-2-(3,3,3-trifluoropropyl)-[1,2,4]triazolo[4,3-c]pyrimidin-3-one] | 0.0316 µM | > 3.98 µM
Cc1cc(-c2c(-c3ccccc3)nc(N)n3c(=O)n(C4CSCc5ccccc54)nc23)cc(C)n1 (stereo not shown) [Example 1-13, 5-amino-8-(2,6-dimethyl-4-pyridyl)-2-isothiochroman-4-yl-7-phenyl-[1,2,4]triazolo[4,3-c]pyrimidin-3-one] | 0.00126 µM | 0.158 µM
Cc1ccc(Cn2nc3c(-c4cc(C)nc(CO)c4)c(-c4ccc(F)cc4)nc(N)n3c2=O)nc1 [Example 1-61, 5-amino-7-(4-fluorophenyl)-8-[2-(hydroxymethyl)-6-methyl-4-pyridyl]-2-[(5-methyl-2-pyridyl)methyl]-[1,2,4]triazolo[4,3-c]pyrimidin-3-one] | 0.00158 µM | > 1.58 µM
CCCn1nc2c(-c3cc(C)nc(C)c3)c(-c3ccccc3)nc(N)n2c1=O [Example 2-20, 5-amino-8-(2,6-dimethyl-4-pyridyl)-7-phenyl-2-propyl-[1,2,4]triazolo[4,3-c]pyrimidin-3-one] | 0.00398 µM | 0.501 µM
Cc1cc(-c2c(-c3ccccc3)nc(N)n3c(=O)n(CC4CCCCO4)nc23)cc(CO)n1 (single isomer, unassigned) [Example 2-91-iso-1, 5-amino-8-[2-(hydroxymethyl)-6-methyl-4-pyridyl]-7-phenyl-2-(tetrahydropyran-2-ylmethyl)-[1,2,4]triazolo[4,3-c]pyrimidin-3-one] | 0.00126 µM | 0.631 µM
Cc1cc(-c2c(-c3ccccc3)nc(N)n3c(=O)n(C4CCCN(C)C4)nc23)cc(C)n1 (stereo not shown) [Example 2-70, 5-amino-8-(2,6-dimethyl-4-pyridyl)-2-(1-methyl-3-piperidyl)-7-phenyl-[1,2,4]triazolo[4,3-c]pyrimidin-3-one] | 0.00398 µM | 0.501 µM
Cc1cc(-c2c(-c3ccccc3)nc(N)n3c(=O)n(CCCn4ccccc4=O)nc23)cc(C)n1 [Example 2-112, 5-amino-8-(2,6-dimethylpyridin-4-yl)-2-(3-(2-oxopyridin-1(2H)-yl)propyl)-7-phenyl-[1,2,4]triazolo[4,3-c]pyrimidin-3(2H)-one] | 0.00316 µM | 0.2 µM
Cc1cc(-c2c(-c3ccccc3)nc(N)n3c(=O)n(Cc4cccnn4)nc23)cc(CO)n1 [Example 1-56, 5-amino-8-[2-(hydroxymethyl)-6-methyl-4-pyridyl]-7-phenyl-2-(pyridazin-3-ylmethyl)-[1,2,4]triazolo[4,3-c]pyrimidin-3-one] | 0.00398 µM | 0.2 µM
Cc1cc(-c2c(-c3ccccc3)nc(N)n3c(=O)n(Cc4c(F)cccc4F)nc23)cc(C)n1 [Example 1-23, 5-amino-2-[(2,6-difluorophenyl)methyl]-8-(2,6-dimethyl-4-pyridyl)-7-phenyl-[1,2,4]triazolo[4,3-c]pyrimidin-3-one] | 0.0001 µM | 0.00316 µM
COc1nc(N)n2c(=O)n(CCC(F)(F)F)nc2c1-c1cc(C)nc(C)c1 [Example 3-8, 5-amino-8-(2,6-dimethyl-4-pyridyl)-7-methoxy-2-(3,3,3-trifluoropropyl)-[1,2,4]triazolo[4,3-c]pyrimidin-3-one] | 1.26 µM | > 3.16 µM
Cc1cc(-c2c(-c3ccc(F)cc3)nc(N)n3c(=O)n(CCc4ccccc4)nc23)cc(C)n1 [Example 1-87, 5-amino-8-(2,6-dimethyl-4-pyridyl)-7-(4-fluorophenyl)-2-(2-phenylethyl)-[1,2,4]triazolo[4,3-c]pyrimidin-3-one] | 0.0158 µM | 0.501 µM
[2H]c1c([2H])c([2H])c(-c2nc(N)n3c(=O)n(Cc4ccc(F)cn4)nc3c2-c2cc(C)nc(CO)c2)c([2H])c1[2H] [Example 1-49, 5-amino-2-[(5-fluoro-2-pyridyl)methyl]-8-[2-(hydroxymethyl)-6-methyl-4-pyridyl]-7-(2,3,4,5,6-pentadeuteriophenyl)-[1,2,4]triazolo[4,3-c]pyrimidin-3-one] | 0.00158 µM | 0.398 µM
Cc1cc(-c2c(-c3ccccc3)nc(N)n3c(=O)n(Cc4cccc(=O)[nH]4)nc23)cc(C)n1 [Example 1-9, 5-amino-8-(2,6-dimethyl-4-pyridyl)-2-[(6-oxo-1H-pyridin-2-yl)methyl]-7-phenyl-[1,2,4]triazolo[4,3-c]pyrimidin-3-one] | 0.0126 µM | 0.126 µM
Cc1cc(-c2c(-c3ccccc3)nc(N)n3c(=O)n(C[C@@H]4COCCN4)nc23)cc(C)n1 [Example 2-79, (R)-5-amino-8-(2,6-dimethylpyridin-4-yl)-2-(morpholin-3-ylmethyl)-7-phenyl-[1,2,4]triazolo[4,3-c]pyrimidin-3(2H)-one] | 0.0158 µM | 0.794 µM
Cc1cc(-c2c(-c3ccccc3)nc(N)n3c(=O)n(CC4CS(=O)(=O)C4)nc23)cc(C)n1 [Example 2-90, 5-amino-8-(2,6-dimethyl-4-pyridyl)-2-[(1,1-dioxothietan-3-yl)methyl]-7-phenyl-[1,2,4]triazolo[4,3-c]pyrimidin-3-one] | 0.0501 µM | 0.794 µM
Cc1cc(-c2c(-c3ccccc3)nc(N)n3c(=O)n(CCN4CCC4)nc23)cc(C)n1 [Example 2-94, 5-amino-2-[2-(azetidin-1-yl)ethyl]-8-(2,6-dimethyl-4-pyridyl)-7-phenyl-[1,2,4]triazolo[4,3-c]pyrimidin-3-one] | 0.0251 µM | > 2.51 µM
COc1ncccc1Cn1nc2c(-c3cc(C)nc(C)c3)c(-c3ccccc3)nc(N)n2c1=O [Example 1-28, 5-amino-8-(2,6-dimethyl-4-pyridyl)-2-[(2-methoxy-3-pyridyl)methyl]-7-phenyl-[1,2,4]triazolo[4,3-c]pyrimidin-3-one] | 0.0002 µM | 0.0631 µM
Cc1cc(-c2c(-c3ccc(F)cc3)nc(N)n3c(=O)n(CCC(F)(F)F)nc23)cc(Cl)n1 [Example 2-50, 5-amino-8-(2-chloro-6-methyl-4-pyridyl)-7-(4-fluorophenyl)-2-(3,3,3-trifluoropropyl)-[1,2,4]triazolo[4,3-c]pyrimidin-3-one] | 0.000794 µM | 0.0794 µM
Cc1cc(-c2c(-c3ccccc3)nc(N)n3c(=O)n(CCN4CCC(F)(F)CC4)nc23)cc(C)n1 [Example 2-101, 5-amino-2-[2-(4,4-difluoro-1-piperidyl)ethyl]-8-(2,6-dimethyl-4-pyridyl)-7-phenyl-[1,2,4]triazolo[4,3-c]pyrimidin-3-one] | 0.0158 µM | 0.631 µM
[2H]c1c([2H])c([2H])c(-c2nc(N)n3c(=O)n(CCC(F)(F)F)nc3c2-c2cc(C)nc(CO)c2)c([2H])c1[2H] [Example 2-61, 5-amino-8-[2-(hydroxymethyl)-6-methyl-4-pyridyl]-7-(2,3,4,5,6-pentadeuteriophenyl)-2-(3,3,3-trifluoropropyl)-[1,2,4]triazolo[4,3-c]pyrimidin-3-one] | 0.00126 µM | 0.631 µM
Cc1cc(-c2c(-c3ccccc3)nc(N)n3c(=O)n(Cc4cccnn4)nc23)cc(C)n1 [Example 1-5, 5-amino-8-(2,6-dimethyl-4-pyridyl)-7-phenyl-2-(pyridazin-3-ylmethyl)-[1,2,4]triazolo[4,3-c]pyrimidin-3-one] | 0.00251 µM | 0.251 µM
Cc1cc(-c2c(-c3ccccc3)nc(N)n3c(=O)n(CCC(C)C)nc23)cc(C)n1 [Example 2-5, 5-amino-8-(2,6-dimethyl-4-pyridyl)-2-isopentyl-7-phenyl-[1,2,4]triazolo[4,3-c]pyrimidin-3-one] | 0.000794 µM | 0.0398 µM
COC(=O)c1cc(-c2c(-c3ccccc3)nc(N)n3c(=O)n(CCC(F)(F)F)nc23)cc(C)n1 [Example 2-52, methyl 4-[5-amino-3-oxo-7-phenyl-2-(3,3,3-trifluoropropyl)-[1,2,4]triazolo[4,3-c]pyrimidin-8-yl]-6-methyl-pyridine-2-carboxylate] | 0.000631 µM | 0.2 µM
COc1cc(-c2c(-c3ccccc3)nc(N)n3c(=O)n(Cc4ccc(C)cn4)nc23)cc(CO)n1 [Example 1-66, 5-amino-8-[2-(hydroxymethyl)-6-methoxy-4-pyridyl]-2-[(5-methyl-2-pyridyl)methyl]-7-phenyl-[1,2,4]triazolo[4,3-c]pyrimidin-3-one] | 0.000631 µM | 0.501 µM
